Laboratory results taken from patent publication US20090048295A1, “SUBSTITUTED 5,6,7,8-TETRAHYDROQUINOLINE DERIVATIVES, COMPOSITIONS, AND METHODS OF USE THEREOF” (priority 2007, published 2009).
“And” between values parts separate entries of the source, which are not always exact repeats. Equal values may be shown once.

Columns and labels:
C5a receptor [1] = molecular target: T1, C5a receptor (Homo sapiens, UniProt P21730); assay: [125I]-C5a Radioligand Binding Assay (competition binding, differentiated U937 cells); conditions: [125I]-C5a 0.05 nM, U937 cells, multiple values = duplicate experiments; for [125I]-C5a Binding % Inhibition 1 μM: test compound 1 μM; for [125I]-C5a Binding % Inhibition 10 μM: test compound 10 μM; for inhibition at 1 µM: read-out: [125I]-C5a Binding % Inhibition 1 μM, test compound 1 μM; for inhibition at 10 µM: read-out: [125I]-C5a Binding % Inhibition 10 μM, test compound 10 μM;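 for all read-outs here: cells preincubated with compound 30 min at room temperature, then 60 min at 4 °C with radioligand, bound counts read by scintillation, nonspecific binding defined with 100 nM C5a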
T1 sequence (P21730 1-350): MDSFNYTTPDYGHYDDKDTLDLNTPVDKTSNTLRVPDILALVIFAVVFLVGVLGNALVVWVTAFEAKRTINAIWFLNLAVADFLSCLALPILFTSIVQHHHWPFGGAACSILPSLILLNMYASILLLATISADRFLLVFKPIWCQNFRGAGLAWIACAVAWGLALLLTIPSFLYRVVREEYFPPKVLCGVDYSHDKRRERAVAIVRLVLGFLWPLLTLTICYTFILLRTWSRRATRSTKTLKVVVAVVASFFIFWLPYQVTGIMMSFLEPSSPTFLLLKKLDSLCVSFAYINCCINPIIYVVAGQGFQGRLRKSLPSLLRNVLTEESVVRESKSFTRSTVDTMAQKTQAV
Protocol: Competition binding assays for C5a receptors were performed by incubation of differentiated U937 cells (200,000 cells/well), test compound (1% DMSO) and [^125I]-C5a (Bolton & Hunter labeled, Perkin Elmer, specific activity=2200 Ci/mmol, 0.05 nM final) in binding buffer consisting of 50 mM HEPES, 5 mM MgCl2, 1 mM CaCl2, 0.5% protease-free BSA, 0.02% NaN3, pH 7.4. 100× solutions of test compounds were prepared in DMSO and further diluted in binding buffer. Non-specific binding was defined in wells containing 100 nM recombinant C5a. Cells and compound were pre-incubated for 30 min at RT. After addition of the radioligand, further incubation for 60 min occurred at 4° C. Cells were harvested on GF/B filters—presoaked in 0.5% polyethylenimine, followed by washing with binding buffer containing 500 mM NaCl, pH 7.4. Filter bound radioactivity was determined by liquid scintillation counting. IC50 and Ki values were calculated using non-linear regression in Graphpad Prism. Ki is calculated using the equation of Cheng and Prusoff (Biochem. Pharmacol. 1973, 22: 3099-3108)

C5a receptor [2] = molecular target: T1, C5a receptor; assay: Calcium Mobilization Assay (C5a-induced Ca2+ mobilization, FLIPR, differentiated U937 cells); assay type: cell-based; parameters: endogenous in cells; host or cells: U937 cells differentiated with dibutyryl cAMP; conditions: […] recombinant human C5a, 20 min pre-incubation, multiple values = duplicate experiments, read-out: C5a Induced Ca Mobil. Average IC50
Protocol: U937 cells (human monocytic cell line) were cultured in RPMI-1640 medium supplemented with 10% fetal bovine serum, 10 mM HEPES, 0.11 g/L pyruvate, 0.29 g/L L-glutamine, 100 IU/mL penicillin G and […] streptomycin. Dibutyryl cAMP (1 mM) was added to induce differentiation 2 or 3 days prior to loading the cells with 4.4 μM Fluo-3AM (Molecular Probes) for 30 min at 37° C. in RPMI medium containing 20 mM HEPES, 0.1% bovine serum albumin (BSA) and 5 mM probenecid. After washing, cells were dissolved at 2×10^6 cells/ml in HBSS buffer (Invitrogen 14190-094) supplemented with 10 mM HEPES, 2.5 mM probenecid and 0.1% BSA (pH=7.4), and sedimented by 1 min centrifugation (1500 rpm) in black 96-well plates (Costar) (200,000 cells/well). A 100× concentration range of test compounds was prepared in DMSO and further diluted in HBSS buffer. U937 cells were pre-incubated with compound for 20 minutes at room temperature (1% DMSO), before recombinant human C5a (Sigma) was added to the cells (1.5 nM). Changes in intracellular free Ca^2+ concentration were measured using the Fluorescent Imaging Plate Reader (FLIPR, Molecular Devices). Fluorescence was recorded every second from 10 seconds before the addition of C5a until 2 min after the addition. The maximal fluorescence obtained during this time frame was used for further calculations.

| SMILES | [125I]-C5a Binding % Inhibition 1 μM (C5a receptor [1]) | [125I]-C5a Binding % Inhibition 10 μM (C5a receptor [1]) | IC50 (C5a receptor [2]) | inhibition at 1 µM (C5a receptor [1]) | inhibition at 10 µM (C5a receptor [1]) |
| --- | --- | --- | --- | --- | --- |
| CCc1cccc(CC)c1-c1cc(OC)c2c(n1)CCCC2N(CC)c1cccc2c1CCCC2 (stereo not shown) [Compound 24] | – | – | 216 nM | 88% | 91% |
| CCc1cccc(CC)c1-c1cc(OCc2ccccc2)c2c(n1)CCCC2N(CC)c1cccc2ccccc12 (stereo not shown) [Compound 27] | – | – | 273 nM | 90% | 94% |
| CCN(c1cccc2ccccc12)C1CCCc2nc(-c3ccccc3C)cc(OC)c21 (stereo not shown) [Compound 30] | – | – | 354 nM | 68% | 82% |
| CCc1cccc(CC)c1-c1cc(OC)c2c(n1)CCCC2N(C)c1ccc(OC)c2ccccc12 (stereo not shown) [Compound 36] | – | – | 531 nM | 86% | 87% |
| CCc1cccc(CC)c1-c1cc(OC)c2c(n1)CCCC2N(C)c1ccccc1C (stereo not shown) [Compound 42] | – | – | 792 nM | 83% | 86% |
| CCc1cccc(CC)c1-c1cc(OC)c2c(n1)CCC[C@H]2N(C)[C@H]1CCCc2ccccc21 [Compound 43] | – | – | 817 nM | 80% | 83% |
| CCc1cccc(CC)c1-c1cc(OC)c2c(n1)CCCC2N1CCc2cccc(C(=O)OC)c2C1 (stereo not shown) [Compound 44] | – | – | 839 nM | 77% | 87% |
| CCc1cccc(CC)c1-c1cc(OC)c2c(n1)CCCC2N1CCc2ccc(F)cc2C1 (stereo not shown) [Compound 45] | – | – | 878 nM | 74% | 87% |
| COc1cc(-c2c(C)cccc2C)nc2c1C(N(C)c1ccc(Cl)c3ccccc13)CCC2 (stereo not shown) [Compound 48] | – | – | 1210 nM | 85% | 91% |
| COc1cc(-c2c(C)cccc2C)nc2c1C(N(CC#N)c1cccc3ccccc13)CCC2 (stereo not shown) [Compound 49] | – | – | 1380 nM | 59% | 80% |
| CCc1cccc(CC)c1-c1cc(OC)c2c(n1)CCCC2N1CCc2ccc(Cl)cc2C1 (stereo not shown) [Compound 51] | – | – | 1410 nM | 83% | 89% |
| CCc1cccc(CC)c1-c1cc(OC)c2c(n1)CCCC2N(C)c1c(C)ccc2ccccc12 (stereo not shown) [Compound 52] | – | – | 1480 nM | 86% | 86% |
| CCc1cccc(CC)c1-c1cc(OC)c2c(n1)CCCC2N(C)N1CCCc2ccccc21 (stereo not shown) [Compound 54] | – | – | 1580 nM | 74% | 87% |
| CCc1cccc(CC)c1-c1cc(OC)c2c(n1)CCCC2N1CCc2c(Cl)cccc2C1 (stereo not shown) [Compound 56] | – | – | 1690 nM | 84% | 85% |
| CCN(c1cccc2ccccc12)C1CCCc2nc(-c3ccccc3C(C)C)cc(OC)c21 (stereo not shown) [Compound 57] | – | – | 1730 nM | 76% | 89% |
| COc1cc(-c2c(C)cccc2C)nc2c1C(N(C)c1cccc3ccccc13)CCC2 (stereo not shown) [Compound 61] | – | – | 2190 nM | 76% | 88% |
| CCc1cccc(CC)c1-c1cc(OC)c2c(n1)CCCC2N1CCCc2ccccc21 (stereo not shown) [Compound 65] | −7% and 1% | – | 2430 nM | – | – |
| COc1ccc(C)c(N(C)C2CCCc3nc(-c4c(C)cccc4C)cc(OC)c32)c1 (stereo not shown) [Compound 69] | – | – | 3220 nM | 76% | 85% |
| CCc1cccc(CC)c1-c1cc(OC)c2c(n1)CCCC2N(C)c1cccc2c1CCC2 (stereo not shown) [Compound 72] | – | – | 3790 nM | 86% | 85% |
| CCN(c1cccc(C)c1C)C1CCCc2nc(-c3c(C)cccc3C)cc(OC)c21 (stereo not shown) [Compound 76] | – | – | 5130 nM | 83% | 85% |
| CCc1cccc(CC)c1-c1cc(OC)c2c(n1)CCC[C@@H]2N(C)[C@H]1CCCc2ccccc21 [Compound 77] | – | 72% | 5500 nM | – | – |
| CCc1cccc(CC)c1-c1cc(OC)c2c(n1)CCCC2N(C(C)=O)c1cccc2ccccc12 (stereo not shown) [Compound 79] | – | – | 6170 nM | 49% | 78% |
| CCc1cccc(CC)c1-c1cc(OC)c2c(n1)CCCC2N(C)C1CCCc2ccccc21 (stereo not shown) [Compound 83] | 51% | 71% | 8130 nM | – | – |
| CCc1cccc(CC)c1-c1cc(OC)c2c(n1)CCCC2OCc1ccccc1 (stereo not shown) [Compound 86] | – | – | > 10000 nM | 49% | 64% |

Continued, values first:

| [125I]-C5a Binding % Inhibition 1 μM (C5a receptor [1]) | [125I]-C5a Binding % Inhibition 10 μM (C5a receptor [1]) | IC50 (C5a receptor [2]) | inhibition at 1 µM (C5a receptor [1]) | inhibition at 10 µM (C5a receptor [1]) | SMILES |
| --- | --- | --- | --- | --- | --- |
| 87% | 86% | 176 nM | – | – | CCc1cccc(CC)c1-c1cc(OC)c2c(n1)CCCC2N(C)c1cccc2cc(OC)ccc12 (stereo not shown) [Compound 22] |
| – | – | 287 nM | 88% | 92% | CCc1cccc(CC)c1-c1cc(OC)c2c(n1)CCCC2Nc1cc(C(F)(F)F)ccc1C (stereo not shown) [Compound 28] |
| – | – | 338 nM | 88% | 89% | CCc1cccc(CC)c1-c1cc(OC)c2c(n1)CCCC2Oc1cc(OC)ccc1C (stereo not shown) [Compound 29] |
| – | – | 380 nM | 88% | 91% | CCc1cccc(CC)c1-c1cc(OC)c2c(n1)CCCC2Nc1cc(OC)ccc1Cl (stereo not shown) [Compound 32] |
| – | – | 417 nM | 83% | 89% | CCc1cccc(CC)c1-c1cc(OC)c2c(n1)CCCC2Nc1cc(OC)ccc1OC (stereo not shown) [Compound 34] |
| – | – | 543 nM | 74% | 86% | COc1ccc(C)c(NC2CCCc3nc(-c4c(C)cccc4C)cc(OC)c32)c1 (stereo not shown) [Compound 37] |
| – | – | 560 nM | 84% | 87% | CCc1cccc(CC)c1-c1cc(OC)c2c(n1)CCCC2N(C)c1cc(OC)ccc1C (stereo not shown) [Compound 38] |
| – | – | 687 nM | 88% | 88% | CCc1cccc(CC)c1-c1cc(OC)c2c(n1)CCCC2N(C)c1cc(C)ccc1C (stereo not shown) [Compound 40] |
| – | – | 732 nM | 85% | 86% | CCc1ccccc1NC1CCCc2nc(-c3c(CC)cccc3CC)cc(OC)c21 (stereo not shown) [Compound 41] |
| – | – | 949 nM | 83% | 89% | CCc1cccc(CC)c1-c1cc(OC)c2c(n1)CCCC2N(C)c1cc(OC)ccc1Cl (stereo not shown) [Compound 47] |
| – | – | 1380 nM | 83% | 85% | CCc1cccc(CC)c1-c1cc(OC)c2c(n1)CCCC2Nc1cc(F)ccc1C (stereo not shown) [Compound 50] |
| – | – | 1490 nM | 85% | 91% | CCc1cccc(CC)c1-c1cc(OC)c2c(n1)CCCC2Nc1cc(Cl)ccc1C (stereo not shown) [Compound 53] |
| – | – | 2350 nM | 74% | 82% | CCc1cccc(CC)c1-c1cc(OC)c2c(n1)CCCC2Nc1ccc(OC)cc1C (stereo not shown) [Compound 63] |
| – | – | 2460 nM | 83% | 88% | CCc1cccc(CC)c1-c1cc(OC)c2c(n1)CCCC2Nc1cc(-c2ccccc2)ccc1C (stereo not shown) [Compound 66] |
| – | – | 2560 nM | 82% | 86% | CCc1cccc(CC)c1-c1cc(OC)c2c(n1)CCCC2N(C)c1cc(Cl)ccc1C (stereo not shown) [Compound 67] |
| – | – | 2570 nM | 66% | 76% | CCc1cccc(CC)c1-c1cc(OC)c2c(n1)CCCC2N(C)c1cc(OC)ccc1OC (stereo not shown) [Compound 68] |
| – | – | 4900 nM | 19% | 52% | CCc1cccc(CC)c1-c1cc(OC)c2c(n1)CCCC2Nc1ccccc1C#N (stereo not shown) [Compound 74] |
| – | – | 6190 nM | 80% | 81% | CCc1cccc(CC)c1-c1cc(OC)c2c(n1)CCCC2N(C)c1ccc(OC)cc1C (stereo not shown) [Compound 80] |
| – | – | 7410 nM | 55% | 71% | CCc1cccc(CC)c1-c1cc(OC)c2c(n1)CCCC2Nc1cccc(OC)c1 (stereo not shown) [Compound 81] |
